The record followed here is ChEMBL document CHEMBL6103628, “Structural Optimization of Covalent Inhibitors for Deubiquitinase ChlaDUB1 of Chlamydia trachomatis as Antibiotic Agents” (J Med Chem, 2025).

For series [1], the target named is T1, Deubiquitinase and deneddylase Dub1 (Chlamydia trachomatis serovar L2 (strain ATCC VR-902B / DSM 19102 /434/Bu)) (UniProt B0B9A0).
T1 sequence (whole entry): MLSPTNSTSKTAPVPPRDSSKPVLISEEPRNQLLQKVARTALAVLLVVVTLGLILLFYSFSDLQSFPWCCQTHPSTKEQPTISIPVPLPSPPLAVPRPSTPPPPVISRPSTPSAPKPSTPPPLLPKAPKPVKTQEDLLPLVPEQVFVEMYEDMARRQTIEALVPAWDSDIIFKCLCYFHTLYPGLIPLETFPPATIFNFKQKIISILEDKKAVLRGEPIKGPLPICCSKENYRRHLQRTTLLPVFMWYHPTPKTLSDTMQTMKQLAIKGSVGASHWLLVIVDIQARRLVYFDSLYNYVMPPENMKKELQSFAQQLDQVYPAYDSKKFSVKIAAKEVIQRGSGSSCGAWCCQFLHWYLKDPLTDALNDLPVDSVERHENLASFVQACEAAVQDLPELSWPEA
In words: Inhibition of recombinant Chlamydia trachomatis DUB1 (130 to 401 residues) using Ub-Rh110Gly as fluorogenic substrate incubated for 60 mins by enzymatic analysis relative to control.

Series [2] has as its system HeLa. The experiment in a line: Cytotoxicity against human HeLa cells assessed as cell viability at 4 to 256 ug/mL measured after 20 hrs by XTT assay. As to conditions: dose 4-256 µg/ml. It is filed as toxicity, cell-based. Background: Tetrazolium assays rely on reduction of a dye to a coloured formazan, in cell work by metabolically active cells.
Series [3] addresses T2, Deubiquitinase and deneddylase Dub1 (Chlamydia trachomatis serovar L2 (strain ATCC VR-902B / DSM 19102 /434/Bu), UniProt B0B9A0).
T2 sequence (B0B9A0 whole entry): T1 sequence (whole entry)
The experiment in a line: Inhibition of recombinant Chlamydia trachomatis DUB1 (130 to 401 residues) using Ub-Rh110Gly as fluorogenic substrate incubated for 60 mins by enzymatic analysis.

For series [4], the system named is HEp-2. The experiment in a line: Cytotoxicity against human HEp-2 cells assessed as reduction in cell viability at 4 to 256 ug/mL measured after 20 hrs by XTT assay. It is filed as toxicity, cell-based. As to conditions: hep-2, 20 h, dose 4-256 µg/ml.
For series [5], the target named is T2, Deubiquitinase and deneddylase Dub1. The experiment in a line: Inhibition of recombinant Chlamydia trachomatis DUB1 (130 to 401 residues) using Ub-Rh110Gly as fluorogenic substrate incubated for 360 mins by enzymatic analysis.
Series [6] has the same target. The experiment in a line: Binding affinity to recombinant Chlamydia trachomatis DUB1 (130 to 401 residues) assessed as inhibition constant using Ub-Rh110Gly as fluorogenic substrate incubated for 360 mins by Michaelis-Menten analysis.
Series [7] addresses T1, Deubiquitinase and deneddylase Dub1 (Chlamydia trachomatis serovar L2 (strain ATCC VR-902B / DSM 19102 /434/Bu)). The experiment in a line: Binding affinity to recombinant Chlamydia trachomatis DUB1 (130 to 401 residues) assessed as inactivation rate constant (Kinact) using Ub-Rh110Gly as fluorogenic substrate incubated for 360 mins by Michaelis-Menten analysis.
Series [8] has the same target. The experiment in a line: Binding affinity to recombinant Chlamydia trachomatis DUB1 (130 to 401 residues) assessed as Kinact/Ki ratio using Ub-Rh110Gly as fluorogenic substrate incubated for 360 mins by Michaelis-Menten analysis.
Series [9] has the same target. In words: Covalent inhibition of recombinant Chlamydia trachomatis DUB1 (130 to 401 residues) using Ub-Rh110Gly as fluorogenic substrate incubated for 10 to 360 mins by enzymatic analysis. As to conditions: time 10-360 min.
Series [10] shares this target. In words: Inhibition of recombinant Chlamydia trachomatis DUB1 (130 to 401 residues) using Ub-Rh110Gly as fluorogenic substrate at highest concentration incubated for 60 to 360 mins by enzymatic analysis. Conditions: time 60-360 min.
Series [11] has the same target. The experiment in a line: Non-covalent inhibition of recombinant Chlamydia trachomatis DUB1 (130 to 401 residues) using Ub-Rh110Gly as fluorogenic substrate incubated for 10 to 360 mins by enzymatic analysis. As to conditions: time 10-360 min.
The target of series [12] is T2, Deubiquitinase and deneddylase Dub1. The experiment in a line: Inhibition of recombinant Chlamydia trachomatis DUB1 (130 to 401 residues) using Ub-Rh110Gly as fluorogenic substrate incubated for 20 mins by enzymatic analysis.
Series [13] deals with Chlamydia trachomatis. The experiment in a line: Anti-chlamydial activity against Chlamydia trachomatis serovar L2 infected in human HEp-2 cells assessed as inhibition of chlamydial inclusion incubated for 16 hrs by Alexa488/DAPI staining based immunofluorescence assay. It is filed as functional, organism-based. Conditions: serovar L2, HEp-2, 16 h.
For series [14], the target named is T2, Deubiquitinase and deneddylase Dub1. The experiment in a line: Inhibition of recombinant Chlamydia trachomatis DUB1 (130 to 401 residues) using Ub-Rh110Gly as fluorogenic substrate incubated for 2 mins by enzymatic analysis.
The target of series [15] is T1, Deubiquitinase and deneddylase Dub1 (Chlamydia trachomatis serovar L2 (strain ATCC VR-902B / DSM 19102 /434/Bu)). In words: Inhibition of recombinant Chlamydia trachomatis DUB1 (130 to 401 residues) using Ub-Rh110Gly as fluorogenic substrate at 100 to 500 uM incubated for 20 to 240 mins by enzymatic analysis relative to control. Conditions: dose 100-500 µM, time 20-240 min.

For orientation: inhibition means the drop in the measured response relative to a control, in per cent. By Ki is commonly meant a dissociation constant, usually derived from enzyme kinetics or from competition with a known ligand.

Converted amounts (≈) assume the structure as drawn. The source made the active and inactive calls. The calls are words filed in the database; no cut-off is given here.

With `N#Cc1nccc(C(=O)NCc2c[nH]c3ccc(OCc4ccccc4)cc23)n1`, in series [1], the inhibition worked out at 100%. The results for the Activity entry in series [2] and in series [4] were “Non-toxic” and “Toxic”, respectively. In series [3] (read-out: IC50), the IC50 is 2.9 µM. As to `N#Cc1nccc(C(=O)NCc2c[nH]c3cccc(OCc4ccccc4)c23)n1`, in series [3] (read-out: IC50), the IC50 came out at 184 µM. Still for that read-out and setting: for `N#Cc1nccc(NC(=O)Cc2c[nH]c3ccccc23)n1` the value was 175 µM; for `N#Cc1ncc(C(=O)NCc2cccc(C(=O)NCc3ccccc3)c2)cn1`, 22 µM.

As to `N#Cc1nccc(C(=O)NCc2n[nH]c3ccccc23)n1`, in series [1], the inhibition came to 100%. Moreover, the IC50 in series [3] (read-out: IC50) stood at 19 µM. `COc1ccccc1CNC(=O)[C@H]1CC[C@H](CNC(=O)c2cnc(C#N)nc2)CC1`: the IC50 in series [3] (read-out: IC50) turned out to be 122 µM. For the compound `N#Cc1nccc(C(=O)NCc2c[nH]c3ccccc23)n1`, the IC50 in [5] was determined as 1.7 µM; in [3] (read-out: IC50), 6.1 µM. For the same compound, the Ki in series [6] came to 314 µM. The Kinact in series [7] was determined as 0.422 min⁻¹. Moreover, the Ratio in [8] came to 22.4 M⁻¹ s⁻¹. For the compound `N#Cc1nccc(C(=O)Nc2n[nH]c3ccccc23)n1`, the inhibition in series [1] was found to be 100%. The IC50 in series [3] (read-out: IC50) is 23 µM. Consider `Cn1cc(CNC(=O)c2ccnc(C#N)n2)c2ccccc21`, for which the IC50 in [3] (read-out: IC50) worked out at 15 µM.

In the case of `N#Cc1ncc(C(=O)NCc2ccc(C(=O)NCc3ccccc3)cc2)cn1`, the IC50 in [3] (read-out: IC50) was found to be 27 µM. Also, the inhibition entry in series [9] is “Active”. As for `N#Cc1nccc(C(=O)NCc2c[nH]c3c(OCc4ccccc4)cccc23)n1`, the IC50 in series [3] (read-out: IC50) was 182 µM. Same read-out and setting: for `N#Cc1ncc(C(=O)N2CCc3cc(C(=O)NCc4ccccc4)ccc3C2)cn1` the value was 77 µM; for `N#Cc1ncc(NC(=O)Cc2c[nH]c3ccccc23)cn1`, 93 µM. With `N#Cc1ncc(C(=O)NCc2ccc(C(=O)NCc3ccccc3)c3ccccc23)cn1`, the inhibition entry in [10] is listed as “Active; Complete Inhibition Was Not Achieved”. Further, the inhibition result in [11] was “Active”. The IC50 in series [3] (read-out: IC50) was found to be 10 µM. Regarding `N#Cc1nccc(C(=O)Nc2cc[nH]n2)n1`, in series [3] (read-out: IC50), the IC50 came to 23 µM. Still for that read-out and setting: under `COc1ccc2c(CNC(=O)c3ccnc(C#N)n3)c[nH]c2c1` stands 7.5 µM. With `N#Cc1nc(C(=O)NCc2c[nH]c3ccccc23)co1`, the values for the IC50 in [12], in series [13] and in series [14] were 3.1 µM, 32.2 µg/mL (≈ 121 µM) and 16 µM, respectively. Also, the Activity result in [2] and in series [4] was “Toxic” throughout. In addition, the Ki in series [6] turned out to be 117 µM. Regarding `COc1ccc2[nH]cc(CNC(=O)c3ccnc(C#N)n3)c2c1`, in series [3] (read-out: IC50), the IC50 came to 5.7 µM.

As for `N#Cc1nccc(C(=O)NCc2ccn(C(=O)Cc3ccccc3)n2)n1`, the inhibition in series [15] is 100%. For the same compound, in series [3] (read-out: IC50), the IC50 stood at 23 µM. Besides, the inhibition result in series [9] was “Active”. Take `Cn1ccc(NC(=O)c2ccnc(C#N)n2)n1`: the IC50 in series [3] (read-out: IC50) was 47 µM; in series [3] (read-out: pIC50 (converted)), 45.7 µM.

Take `N#Cc1nccc(C(=O)NCCc2c[nH]c3ccccc23)n1`: the IC50 in [3] (read-out: IC50) worked out at 23 µM.

`N#Cc1nccc(C(=O)NCc2c[nH]c3cc(OCc4ccccc4)ccc23)n1`: in series [3] (read-out: IC50), the IC50 worked out at 15 µM.
